The source made the active and inactive calls. The rule behind the calls is not given here.
System: GENE-TOX genotoxicity assays, various organisms and cells
Assay: GENE-TOX mutagenicity studies
[1] = Species/Cell Type: Drosophila melanogaster, Assay Type: Sex-linked recessive lethal gene mutation, Assay Code: SRL+, Evaluation Type: Evaluation A (Pre-1980)

O=P1(N(CCCl)CCCl)NCCCO1 (centres undefined)
mutagenic call (Species/Cell Type: Arabidopsis species, Assay Type: Gene mutation, Assay Code: ARM-, Evaluation Type: Evaluation A (Pre-1980)): inactive; negative | mutagenic call (Species/Cell Type: Chinese hamster ovary (CHO) cells, Assay Type: Forward gene mutation at the HPRT locus, Assay Code: CHO+*, Activation: With metabolic activation, Evaluation Type: Evaluation B (Post-1980)): active; positive | mutagenic call [1]: active; positive | mutagenic call (Species/Cell Type: Escherichia coli WP2, Assay Type: Tryptophan reverse gene mutation, Assay Code: WP2+, Evaluation Type: Evaluation A (Pre-1980)): active; positive | mutagenic call (Species/Cell Type: Escherichia coli WP2 UVRA, Assay Type: Tryptophan reverse gene mutation, Assay Code: WPU+, Evaluation Type: Evaluation A (Pre-1980)): active; positive | mutagenic call (Species/Cell Type: Escherichia coli polA (W3110 vs P3478), Assay Type: Rec-assay, DNA effects (bacterial DNA repair), Assay Code: RE2+, Evaluation Type: Evaluation A (Pre-1980)): active; positive | mutagenic call (Species/Cell Type: F1 mouse, Sex: Male, Assay Type: Sperm morphology, Assay Code: SPF+, Evaluation Type: Evaluation A (Pre-1980)): active; positive | mutagenic call (Species/Cell Type: Fischer rat embryo (RLV/1706) cells, Assay Type: Cell transformation, viral enhanced, Assay Code: CTR+, Evaluation Type: Evaluation A (Pre-1980)): active; positive | mutagenic call (Species/Cell Type: Human bone marrow, Assay Type: Chromosome aberrations in vivo, Assay Code: CY5+, Evaluation Type: Evaluation A (Pre-1980)): active; positive | mutagenic call (Species/Cell Type: Human cell culture, Assay Type: Chromosome aberrations in vitro, Assay Code: CYZ+, Evaluation Type: Evaluation A (Pre-1980)): active; positive | mutagenic call (Species/Cell Type: Human diploid fibroblasts, Assay Type: Unscheduled DNA synthesis (UDS) in vitro, DNA effects, Assay Code: UDHT, Evaluation Type: Evaluation A (Pre-1980)): no conclusion | mutagenic call (Species/Cell Type: Human lymphocytes or leukocytes, Assay Type: Chromosome aberrations in vitro, Assay Code: CY7+D, Dose Response: With dose response, Evaluation Type: Evaluation A (Pre-1980)): active; positive | mutagenic call (Species/Cell Type: Human lymphocytes or leukocytes, Assay Type: Chromosome aberrations in vivo, Assay Code: CY8+, Evaluation Type: Evaluation A (Pre-1980)): active; positive | mutagenic call (Species/Cell Type: Human lymphocytes, Assay Type: Sister-chromatid exchange (SCE) in vitro, Assay Code: SCL+D, Dose Response: With dose response, Evaluation Type: Evaluation B (Post-1980)): active; positive | mutagenic call (Species/Cell Type: Human lymphocytes, Assay Type: Sister-chromatid exchange (SCE) in vitro, Assay Code: SCLT, Evaluation Type: Evaluation A (Pre-1980)): no conclusion | mutagenic call (Species/Cell Type: Human lymphocytes, Assay Type: Sister-chromatid exchange (SCE) in vivo, Assay Code: SCY+, Evaluation Type: Evaluation B (Post-1980)): active; positive | mutagenic call (Species/Cell Type: Human, Assay Type: Sister-chromatid exchange (SCE) in vitro, Assay Code: SC1+D, Dose Response: With dose response, Evaluation Type: Evaluation B (Post-1980)): active; positive | mutagenic call (Species/Cell Type: Human, Sex: Male, Assay Type: Sperm morphology, Assay Code: SPH+, Evaluation Type: Evaluation A (Pre-1980)): active; positive | mutagenic call (Species/Cell Type: Mammalian germ cells, Sex: Male, Assay Type: Chromosome aberrations in vivo, Assay Code: CY9+, Evaluation Type: Evaluation A (Pre-1980)): active; positive | mutagenic call (Species/Cell Type: Mammalian oocytes or early embryo, Assay Type: Chromosome aberrations in vivo, Assay Code: CYO+D, Dose Response: With dose response, Evaluation Type: Evaluation A (Pre-1980)): active; positive | mutagenic call (Species/Cell Type: Mammalian polychromatic erythrocytes, Assay Type: Micronucleus test, chromosome aberrations, Assay Code: MNT+, Evaluation Type: Evaluation A (Pre-1980)): active; positive | mutagenic call (Species/Cell Type: Mouse (BALB/c-3T3) cells, Assay Type: Cell transformation, Assay Code: CTB-, Evaluation Type: Evaluation A (Pre-1980)): inactive; negative | mutagenic call (Species/Cell Type: Mouse (C3H/10T1/2) cells, Assay Type: Cell transformation, Assay Code: CTH+D*, Activation: With metabolic activation, Dose Response: With dose response, Evaluation Type: Evaluation A (Pre-1980)): active; positive | mutagenic call (Species/Cell Type: Mouse germ cells, Sex: Male, Assay Type: Unscheduled DNA synthesis (UDS) in vivo, DNA effects, Assay Code: UDT+, Evaluation Type: Evaluation A (Pre-1980)): active; positive | mutagenic call (Species/Cell Type: Mouse lymphoma (L5178Y) cells, Assay Type: Forward gene mutation at the thymidine kinase (TK) locus, chromosome aberrations, Assay Code: L51+*, Activation: With metabolic activation, Evaluation Type: Evaluation A (Pre-1980)): active; positive | mutagenic call (Species/Cell Type: Mouse, Sex: Female, Assay Type: Spot test, gene mutation, Assay Code: MST+, Evaluation Type: Evaluation A (Pre-1980)): active; positive | mutagenic call (Species/Cell Type: Mouse, Sex: Male, Assay Type: Heritable translocation test, chromosome aberrations, Assay Code: HTT+, Evaluation Type: Evaluation A (Pre-1980)): active; positive | mutagenic call (Species/Cell Type: Mouse, Sex: Male, Assay Type: Specific locus test, gene mutation, Assay Code: SLT+, Evaluation Type: Evaluation A (Pre-1980)): active; positive | mutagenic call (Species/Cell Type: Mouse, Sex: Male, Assay Type: Sperm morphology, Assay Code: SPI+, Evaluation Type: Evaluation A (Pre-1980)): active; positive | mutagenic call (Species/Cell Type: Nonhuman bone marrow, Assay Type: Chromosome aberrations, in vivo, Assay Code: CY#+D, Dose Response: With dose response, Evaluation Type: Evaluation A (Pre-1980)): active; positive | call (Species/Cell Type: Nonhuman, Assay Type: In vivo carcinogenicity studies, Assay Code: CCG+, Evaluation Type: Evaluation A (Pre-1980)): active; positive | mutagenic call (Species/Cell Type: Nonhuman, Assay Type: Sister-chromatid exchange (SCE) in vitro, Assay Code: SC2+D, Dose Response: With dose response, Evaluation Type: Evaluation A (Pre-1980)): active; positive | mutagenic call (Species/Cell Type: Nonhuman, Assay Type: Sister-chromatid exchange (SCE) in vivo, Assay Code: SC3+D, Dose Response: With dose response, Evaluation Type: Evaluation A (Pre-1980)): active; positive | mutagenic call (Species/Cell Type: Rabbit, Sex: Male, Assay Type: Sperm morphology, Assay Code: SPRT, Evaluation Type: Evaluation A (Pre-1980)): no conclusion | mutagenic call (Species/Cell Type: Rat, Sex: Male, Assay Type: Sperm morphology, Assay Code: SPA+, Evaluation Type: Evaluation A (Pre-1980)): active; positive | mutagenic call (Species/Cell Type: Rodents, Sex: Male, Assay Type: Dominant lethal test, Assay Code: DLT+D, Dose Response: With dose response, Evaluation Type: Evaluation A (Pre-1980)): active; positive | mutagenic call (Species/Cell Type: Saccharomyces cerevisiae, Assay Type: Forward gene mutation, Assay Code: YEF+, Evaluation Type: Evaluation A (Pre-1980)): active; positive | mutagenic call (Species/Cell Type: Saccharomyces cerevisiae, Assay Type: Mitotic recombination or gene conversion, Assay Code: YEC+*, Activation: With metabolic activation, Evaluation Type: Evaluation A (Pre-1980)): active; positive | mutagenic call (Species/Cell Type: Saccharomyces cerevisiae, Assay Type: Mitotic recombination or gene conversion, Assay Code: YEH+, Evaluation Type: Evaluation A (Pre-1980)): active; positive | mutagenic call (Species/Cell Type: Saccharomyces cerevisiae, Assay Type: Reverse gene mutation, Assay Code: YER+, Evaluation Type: Evaluation A (Pre-1980)): active; positive | mutagenic call (Species/Cell Type: Salmonella typhimurium (one or more of the five standard strains: TA98, TA100, TA1535, TA1537, and TA1538), Assay Type: Histidine reverse gene mutation, Ames assay, Assay Code: SAL+*, Activation: With metabolic activation, Evaluation Type: Evaluation A (Pre-1980)): active; positive | mutagenic call (Species/Cell Type: Salmonella typhimurium, Escherichia coli, Serratia marcesens, human lymphoid cells, Saccharomyces cerevisiae, Chinese ha, Assay Type: Forward and reverse gene mutation, mitotic recombination and gene conversion, DNA effects, chromosome aberrations, host-, Assay Code: HM6+, Evaluation Type: Evaluation A (Pre-1980)): active; positive | mutagenic call (Species/Cell Type: Salmonella typhimurium, Saccharomyces cerevisiae, human leukocytes and diploid fibroblasts, Assay Type: Forward and reverse gene mutation, mitotic recombination and gene conversion, DNA effects, body fluid assay, Assay Code: BFJ+, Evaluation Type: Evaluation A (Pre-1980)): active; positive

CN(C)N=Nc1c(Br)cc(Br)cc1Br
mutagenic call [1]: active; positive | mutagenic call (Species/Cell Type: Saccharomyces cerevisiae, Assay Type: Mitotic recombination or gene conversion, Assay Code: YEC+, Evaluation Type: Evaluation A (Pre-1980)): active; positive

CCOC(=O)COc1ccc(Cl)cc1CSC(=N)N
mutagenic call (Species/Cell Type: Saccharomyces cerevisiae, Assay Type: Reverse gene mutation, Assay Code: YERT, Evaluation Type: Evaluation A (Pre-1980)): no conclusion

Cc1c2ccccc2cc2c(F)cc3ccccc3c12
mutagenic call (Species/Cell Type: Mouse prostate cells, Assay Type: Cell transformation, Assay Code: CTM+, Evaluation Type: Evaluation A (Pre-1980)): active; positive

Nc1cccc(O)c1
mutagenic call (Species/Cell Type: Mammalian polychromatic erythrocytes, Assay Type: Micronucleus test, chromosome aberrations, Assay Code: MNTT, Evaluation Type: Evaluation A (Pre-1980)): no conclusion | mutagenic call (Species/Cell Type: Neurospora crassa, Assay Type: Aneuploidy, chromosome aberrations, Assay Code: NEN-, Evaluation Type: Evaluation A (Pre-1980)): inactive; negative

NCCSSCCN
mutagenic call (Species/Cell Type: Human lymphocytes, Assay Type: Sister-chromatid exchange (SCE) in vitro, Assay Code: SCLT, Evaluation Type: Evaluation B (Post-1980)): no conclusion | mutagenic call (Species/Cell Type: Human, Assay Type: Sister-chromatid exchange (SCE) in vitro, Assay Code: SC1T, Evaluation Type: Evaluation B (Post-1980)): no conclusion | mutagenic call (Species/Cell Type: Nonhuman, Assay Type: Sister-chromatid exchange (SCE) in vitro, Assay Code: SC2+D, Dose Response: With dose response, Evaluation Type: Evaluation B (Post-1980)): active; positive

Cc1ccc(S(N)(=O)=O)cc1
mutagenic call (Species/Cell Type: Drosophila melanogaster, Assay Type: Sex-linked recessive lethal gene mutation, Assay Code: SRLT, Evaluation Type: Evaluation A (Pre-1980)): no conclusion | mutagenic call (Species/Cell Type: Mammalian polychromatic erythrocytes, Assay Type: Micronucleus test, chromosome aberrations, Assay Code: MNTT, Evaluation Type: Evaluation B (Post-1980)): no conclusion

From PubChem BioAssay AID1259408 (Genetic Toxicology Data Bank (GENE-TOX), 2018)
